Assay results: ChEMBL document CHEMBL1201862, “PubChem BioAssay data set” (2004)
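Five concentrations, 48 hours, 96-well plates. GI50 is the concentration that inhibits growth by half.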 Calls of active or inactive are those of the source. Cut-off read from the data, not from the text of the source: active = GI50 up to about 1.1 µM and inactive = higher.

Experiments:
Assay in all cases: DTP human tumour cell line panel, 48 h
A498 = test system: A498
CCRF-CEM = test system: CCRF-CEM
DMS-273 = test system: DMS-273
HOP-62 = test system: HOP-62
HT-29 = test system: HT-29
KM12 = test system: KM12
NCI-H23 = test system: NCI-H23
OVCAR-3 = test system: OVCAR-3
OVCAR-5 = test system: OVCAR-5
SF-539 = test system: SF-539
SK-MEL-28 = test system: SK-MEL-28
SK-OV-3 = test system: SK-OV-3
SN12C = test system: SN12C
SNB-19 = test system: SNB-19
SNB-75 = test system: SNB-75
SW-620 = test system: SW-620
UO-31 = test system: UO-31
786-0 = test system: 786-0
OVCAR-8 = test system: OVCAR-8
HCT-15 = test system: HCT-15

| SMILES | GI50 (A498) | GI50 (CCRF-CEM) | GI50 (DMS-273) | GI50 (HOP-62) | GI50 (HT-29) | GI50 (KM12) | GI50 (NCI-H23) | GI50 (OVCAR-3) | GI50 (OVCAR-5) | GI50 (SF-539) | GI50 (SK-MEL-28) | GI50 (SK-OV-3) | GI50 (SN12C) | GI50 (SNB-19) | GI50 (SNB-75) | GI50 (SW-620) | GI50 (UO-31) | GI50 (786-0) | GI50 (OVCAR-8) | GI50 (HCT-15) |
| --- | --- | --- | --- | --- | --- | --- | --- | --- | --- | --- | --- | --- | --- | --- | --- | --- | --- | --- | --- | --- |
| C=CCCN1CCc2c([nH]c3ccccc23)C1C(=O)O (centres undefined) | > 100 µM (inactive) | 96.2 µM (inactive) | > 100 µM (inactive) | > 100 µM (inactive) | > 100 µM (inactive) | > 100 µM (inactive) | 78 µM (inactive) | > 100 µM (inactive) | > 100 µM (inactive) | > 100 µM (inactive) | > 100 µM (inactive) | > 100 µM (inactive) | > 100 µM (inactive) | > 100 µM (inactive) | 26.9 µM (inactive) | > 100 µM (inactive) | > 100 µM (inactive) | – | – | – |
| CC(=O)OCc1c(C)c2ccccc2n1C(C)=O | 38.3 µM (inactive) | 18.1 µM (inactive) | 25.1 µM (inactive) | 63.1 µM (inactive) | 59.2 µM (inactive) | 40.5 µM (inactive) | 55 µM (inactive) | 26.7 µM (inactive) | > 100 µM (inactive) | 38.2 µM (inactive) | > 100 µM (inactive) | 81.3 µM (inactive) | 35.7 µM (inactive) | > 100 µM (inactive) | 82.6 µM (inactive) | 47 µM (inactive) | > 100 µM (inactive) | > 100 µM (inactive) | 49 µM (inactive) | – |
| COc1ccc(CCn2cncn2)cc1 | – | > 100 µM (inactive) | > 100 µM (inactive) | > 100 µM (inactive) | > 100 µM (inactive) | > 100 µM (inactive) | > 100 µM (inactive) | > 100 µM (inactive) | > 100 µM (inactive) | > 100 µM (inactive) | > 100 µM (inactive) | > 100 µM (inactive) | > 100 µM (inactive) | > 100 µM (inactive) | > 100 µM (inactive) | > 100 µM (inactive) | > 100 µM (inactive) | – | – | > 100 µM |
| CC1=C2C3OC(=O)C(C)C3CCC2(C)C=C/C1=N\c1ccccc1 (centres undefined) | > 100 µM (inactive) | > 100 µM (inactive) | > 100 µM (inactive) | > 100 µM (inactive) | > 100 µM (inactive) | > 100 µM (inactive) | > 100 µM (inactive) | > 100 µM (inactive) | > 100 µM (inactive) | > 100 µM (inactive) | > 100 µM (inactive) | > 100 µM (inactive) | > 100 µM (inactive) | > 100 µM (inactive) | > 53.3 µM (inactive) | > 100 µM (inactive) | > 100 µM (inactive) | – | > 100 µM (inactive) | > 100 µM |
| Cc1cc(C(=O)NCCN(C)C)c2nc3ccccc3cc2c1 | 1.15 µM (inactive) | 1.36 µM (inactive) | 2.31 µM (inactive) | 1.68 µM (inactive) | 1.13 µM (inactive) | 2.94 µM (inactive) | 2.3 µM (inactive) | 2.38 µM (inactive) | 1.98 µM (inactive) | 3.76 µM (inactive) | 3.15 µM (inactive) | 2.16 µM (inactive) | 1.59 µM (inactive) | 2.01 µM (inactive) | 3.13 µM (inactive) | 0.889 µM (active) | 1.42 µM (inactive) | – | 1.25 µM (inactive) | 1.65 µM |
| O=C1C=CC(=O)c2c(Cl)ccc(O)c21 | > 87.9 µM (inactive) | – | 16.2 µM (inactive) | > 100 µM (inactive) | 21.6 µM (inactive) | 52.7 µM (inactive) | 12.4 µM (inactive) | 15.6 µM (inactive) | > 54.1 µM (inactive) | > 42.3 µM (inactive) | 18.8 µM (inactive) | > 100 µM (inactive) | 21.1 µM (inactive) | > 100 µM (inactive) | 28.5 µM (inactive) | 11.6 µM (inactive) | > 100 µM (inactive) | – | 20.4 µM (inactive) | 17.8 µM |
